Experimental data published in patent US12685757B2, “Method to increase systemic blood pressure in shock” (GEORGETOWN UNIVERSITY, priority 2019, dated 2026).

Legend:
[1] = system: isolated pressurized (60 mmHg) arteries; assay: Ex vivo contractility of isolated pressurized arteries; parameters: species or system mice; details: arterioles
Protocol: Ex vivo artery physiology: Skeletal muscle arteries (radial artery branch, artery #18, subscapular branch artery #14) and cerebellar branch, cerebral artery #3) were isolated and cannulated with glass micropipettes secured with monofilament threads. The pipette and bathing solution contained modified PSS (125 mM NaCl, 3 mM KCl, 26 mM NaHCO3, 1.25 mM NaH2PO4, 1 mM MgCl2, 4 mM D-glucose, and 2 mM CaCl2)) aerated with a gas mixture consisting of 95% 02, 5% CO2, to maintain pH (pH 7.4). Arterioles were pressure clamped (60 mmHg) using a custom-built apparatus in a heated imaging chamber (Tokai Hit), viewed with a 10× objective using a Nikon TE2000 microscope and recorded by a Retiga 3000 digital camera (QImaging). The arteriole diameter was measured at several locations along each arteriole using the NIH-ImageJ software's edge-detection plug-in (Diameter). The software automatically detects the distance between edges (by resampling a total of five times from adjacent pixels) yielding a continuous read-out SD of a vessel's diameter.

[2] = system: DRG; assay: nLacZ staining of DRG after systemic TRPV1 agonist (neurotoxicity); type: in vivo; details: 50 μg/kg; TRPV1-nLacZ reporter mice; preliminary data
From the text: A potential adverse effect of TRPV1 agonists is toxicity to sensory nerves. Indeed, in vivo administration of the ultrapotent agonist, resiniferatoxin (RTX), or even high doses of capsaicin can lead to destruction of TRPV1+ neurons (Szallasi S and Blumberg P M, “Vanilloid receptor loss in rat sensory ganglia associated with long term desensitization to resiniferatoxin” Neurosci Lett 140 (1)(1992)51-54. In one embodiment, TRPV1 agonists that poorly penetrate the CNS, such as DkTx or BrP-LPA, are employed. In vivo toxicity is tested by the administration of TRPV1 agonists in TRPV1^PLAP-nLacZ mice based on the highest cumulative doses utilized in EXAMPLE 5. One week later, DRG are isolated and analyzed for nLacZ staining. […] This analysis therefore determines TRPV1 agonist neurotoxicity and forms an assay for toxicity limiting strategies. In one embodiment, BrP-LPA is employed as a more hydrophilic molecule than capsaicin with less neurotoxicity. In another embodiment, DkTx, with limited CNS penetration, is employed to avoid neurotoxicity.
X-gal staining. TRPV1^PLAP-nlacZ mice were anesthetized with isoflurane and perfused through the heart using PBS (0.1M, pH 7.3) followed by ice-cold 2-4% buffered paraformaldehyde. […]

resiniferatoxin was tested, and the “response to prolonged application” value [1] was “non-desensitizing response” and the “nLacZ staining in DRG” value [2] was “nearly completely abolishes nLacZ staining”.
